Measured values published in PMC7144377, “In Vitro and In Vivo Characterization of Dibenzothiophene Derivatives [^125I]Iodo-ASEM and [^18F]ASEM as Radiotracers of Homo- and Heteromeric α7 Nicotinic Acetylcholine Receptors” (Molecules, 2020).

Tests used:
[1] = target: T1, α7 nicotinic acetylcholine receptor (α7 nAChR) (Sus scrofa, UniProt F1SNR6); experiment: displacement of […]Iodo-ASEM at […] by autoradiography; conditions: read-out: [^125I]Iodo-ASEM Binding in the Pig Cortex, Layers 1-3 (%, mean ± S.E.M.)
T1 construct: gene CHRNA7; native receptor in pig cortex sections

[2] = target: T1, α7 nicotinic acetylcholine receptor (α7 nAChR); experiment: displacement of […]Iodo-ASEM at […] by autoradiography; also blocks […]ASEM PET in vivo; conditions: read-out: [^125I]Iodo-ASEM Binding in the Pig Cortex, Layers 1-3 (%, mean ± S.E.M.)

T1 sequence (F1SNR6 20-499): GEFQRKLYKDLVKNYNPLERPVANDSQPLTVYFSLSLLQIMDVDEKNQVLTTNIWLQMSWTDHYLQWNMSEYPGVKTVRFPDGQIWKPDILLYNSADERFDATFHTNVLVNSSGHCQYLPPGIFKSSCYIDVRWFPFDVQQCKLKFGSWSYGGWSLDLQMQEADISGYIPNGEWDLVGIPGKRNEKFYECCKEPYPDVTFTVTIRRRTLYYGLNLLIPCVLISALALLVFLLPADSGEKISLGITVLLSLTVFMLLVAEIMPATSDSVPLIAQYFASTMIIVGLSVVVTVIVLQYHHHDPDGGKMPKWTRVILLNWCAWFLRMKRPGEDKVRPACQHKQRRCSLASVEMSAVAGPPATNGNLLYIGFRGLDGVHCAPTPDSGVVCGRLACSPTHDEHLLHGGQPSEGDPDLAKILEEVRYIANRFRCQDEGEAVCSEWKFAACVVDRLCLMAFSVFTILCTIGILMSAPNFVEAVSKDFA

Structure (SMILES) | activity at 10 µM [1] | activity at 10 µM [2]
CN1C[C@@H]2CN(c3ccc(-c4ccccc4)nn3)C[C@@H]2C1 [A-582941] | 3.22 ± 0.28% | –
CCN1C[C@]2(COC(=O)c3ccccc3N3C(=O)C[C@H](C)C3=O)CC[C@H](OC)[C@@]34[C@@H]5C[C@H]6[C@H](OC)[C@@H]5[C@](O)(C[C@@H]6OC)[C@@](O)([C@@H](OC)[C@H]23)[C@@H]14 [methyllycaconitine] | 20.5 ± 2.18% | –
O=C(Oc1ccc(Br)cc1)N1CCN2CCC1CC2 [SSR-180,711] | – | 2.92 ± 0.35%
O=C(N[C@@H]1C2CCN(CC2)[C@H]1Cc1cccnc1)c1cc2ccccc2o1 [TC-5619] | 7.88 ± 1.65% | –
